In US20130324522A1, “INSECT ODORANT RECEPTOR ANTAGONISTS” (THE ROCKEFELLER UNIVERSITY, priority 2010, published 2013):
Where two headings read alike, the source gives them in different places.

Columns and labels:
[1] = molecular target: T1, TRP channel (TRPM8) (Mus musculus, UniProt Q8R4D5); experiment: Ca2+-imaging of stable HEK293T cell line TRPM8; assay type: cell-based; details: for inhibition at 4 µM: HEK-293T, compound applied at 4 μM, read-out: Percent Inhibition TRPM8
T1 construct: Full-length cDNAs for mosquito (Anopheles gambiae) odorant receptor (OR1, OR2, OR7, OR8, OR28), and fly (Drosophila melanogaster) odorant receptor (Or47a, Or83b), mouse TRP channel (TRPM8); expressed in transfected cells
T1 sequence (Q8R4D5 whole entry): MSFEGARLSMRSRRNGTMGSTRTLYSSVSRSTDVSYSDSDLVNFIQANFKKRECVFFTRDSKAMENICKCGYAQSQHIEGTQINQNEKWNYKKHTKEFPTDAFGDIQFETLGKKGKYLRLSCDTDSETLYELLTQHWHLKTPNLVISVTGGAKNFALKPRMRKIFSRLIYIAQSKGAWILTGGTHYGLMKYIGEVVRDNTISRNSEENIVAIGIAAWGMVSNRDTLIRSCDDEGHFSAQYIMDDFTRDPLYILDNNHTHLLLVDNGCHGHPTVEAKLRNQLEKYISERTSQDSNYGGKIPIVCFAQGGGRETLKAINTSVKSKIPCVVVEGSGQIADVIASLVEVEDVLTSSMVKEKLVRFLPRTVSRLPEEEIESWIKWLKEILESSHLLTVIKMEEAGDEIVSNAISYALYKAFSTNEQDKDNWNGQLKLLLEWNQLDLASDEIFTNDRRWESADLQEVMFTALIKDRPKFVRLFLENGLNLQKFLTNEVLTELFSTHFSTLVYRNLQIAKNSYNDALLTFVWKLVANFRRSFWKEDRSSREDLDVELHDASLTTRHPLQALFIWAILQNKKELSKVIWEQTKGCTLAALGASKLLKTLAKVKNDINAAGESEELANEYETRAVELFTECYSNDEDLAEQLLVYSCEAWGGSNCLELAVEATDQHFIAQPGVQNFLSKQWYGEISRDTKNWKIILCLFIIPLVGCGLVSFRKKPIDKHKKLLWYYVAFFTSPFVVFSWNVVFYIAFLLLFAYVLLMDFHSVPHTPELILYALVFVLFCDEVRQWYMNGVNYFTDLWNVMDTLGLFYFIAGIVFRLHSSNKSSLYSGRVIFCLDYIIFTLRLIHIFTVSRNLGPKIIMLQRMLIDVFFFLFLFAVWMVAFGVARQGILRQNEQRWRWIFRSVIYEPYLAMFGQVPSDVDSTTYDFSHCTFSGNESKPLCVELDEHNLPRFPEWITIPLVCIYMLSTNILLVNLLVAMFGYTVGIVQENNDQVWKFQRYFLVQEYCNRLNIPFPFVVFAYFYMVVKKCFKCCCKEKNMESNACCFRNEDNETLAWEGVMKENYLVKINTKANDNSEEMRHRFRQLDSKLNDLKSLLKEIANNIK
Experimental: (§1) Full-length cDNAs for mosquito (Anopheles gambiae) odorant receptor (OR1, OR2, OR7, OR8, OR28), and fly (Drosophila melanogaster) odorant receptor (Or47a, Or83b), mouse TRP channel (TRPM8), and mouse serotonin receptor (5HT3) were obtained and subcloned into mammalian expression vectors. The following mammalian expression vectors were used:
Stable cell lines OR1/OR7, OR2/OR7, OR8/OR7, OR10/OR7, OR28/OR7 and TRPM8 were generated from HEK293T cells. HEK293T-based cell lines were cultured in DMEM supplemented with these additional antibiotics: 6 μg/mL blasticidin and 1 μg/mL puromycin, with the exception of the TRPM8 cell lines, which was cultured in DMEM supplemented with 1 μg/mL puromycin.
Cells were trypsinized and split into 35 mm dishes one day before transfection. Confluent cells (60-70%) in 35 mm dishes were transfected with 1 μg of insect OR(X) plasmids in pME18s-bla and 1 μg of OR7-pME18s-puro using lipofectamine 2000. For Anopheles odorant receptors, two plasmids were co-transfected into HEK cells: the ligand-specific receptor (OR1, OR2, OR8, OR28) and the corresponding olfactory co-receptor: OR7. Cell lines containing TRPM8 were transfected with single plasmid.
(§2) Stable cell lines were cultured in 10 cm dishes, and confluent cells (70-80%) were trypsinized. 10,000 cells/20 μL were transferred into each well of 384-well plates coated with poly-D-lysine, and cultured for 2 days. For Flip-In T-Rex cells (cell lines expressing Or47a/Or83b and 5HT3), 5 μL of tetracycline (5 μg/mL) were added 1 day before the assay. 20 μL of Ca-4 dye was loaded into each well for 1.5 hr at room temperature in the dark, and the dye-loaded plates were subjected to Ca^2+-imaging using a Hamamatsu FDSS6000 real time fluorescence plate reader. Odorant solutions (9× final concentration) were prepared by dissolving 1M stock solutions into Hank's Buffered Salt Solution (HBSS), and 30 μL of odor solution was transferred to each well in 384-well plates.
(§3) Compounds ([…] in DMSO) were stored in 384-well plates, and last two columns (32 wells total) contained only DMSO. 200 nL of small compounds were transferred into the odorant plates before the assay using the Perkin-Elmer Janus workstation. The odorant plates were spun down to remove air bubbles, and placed on the FDSS6000 plate loader, and 5 μL of odorant solution was applied to the cell plate on the FDSS6000. Ca^2+ increase was monitored with fluorescence at 525 nm by excitation at 485 nm.

[2] = molecular target: T2, Or47a/Or83b (Drosophila melanogaster, UniProt P81921+Q9VNB5); experiment: Ca2+-imaging of stable Flip-In T-Rex cell line Or47a/Or83b; assay type: cell-based; details: for inhibition at 4 µM: compound applied at 4 μM, read-out: Percent Inhibition OR47a OR83b
T2 construct: Full-length cDNAs for mosquito (Anopheles gambiae) odorant receptor (OR1, OR2, OR7, OR8, OR28), and fly (Drosophila melanogaster) odorant receptor (Or47a, Or83b); expressed in transfected cells
T2 sequence (P81921 1-385): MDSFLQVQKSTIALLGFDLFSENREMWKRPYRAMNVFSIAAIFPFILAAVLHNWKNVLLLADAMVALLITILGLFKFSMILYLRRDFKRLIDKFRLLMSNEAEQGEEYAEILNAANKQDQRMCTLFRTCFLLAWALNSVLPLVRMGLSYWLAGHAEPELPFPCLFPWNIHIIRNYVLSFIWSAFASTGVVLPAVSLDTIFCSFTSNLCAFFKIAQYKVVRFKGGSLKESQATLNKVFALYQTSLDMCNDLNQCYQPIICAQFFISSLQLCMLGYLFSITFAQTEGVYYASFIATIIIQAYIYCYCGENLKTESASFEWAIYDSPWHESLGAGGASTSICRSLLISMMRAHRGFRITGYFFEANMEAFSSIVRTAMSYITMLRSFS
T2 sequence (Q9VNB5 1-486): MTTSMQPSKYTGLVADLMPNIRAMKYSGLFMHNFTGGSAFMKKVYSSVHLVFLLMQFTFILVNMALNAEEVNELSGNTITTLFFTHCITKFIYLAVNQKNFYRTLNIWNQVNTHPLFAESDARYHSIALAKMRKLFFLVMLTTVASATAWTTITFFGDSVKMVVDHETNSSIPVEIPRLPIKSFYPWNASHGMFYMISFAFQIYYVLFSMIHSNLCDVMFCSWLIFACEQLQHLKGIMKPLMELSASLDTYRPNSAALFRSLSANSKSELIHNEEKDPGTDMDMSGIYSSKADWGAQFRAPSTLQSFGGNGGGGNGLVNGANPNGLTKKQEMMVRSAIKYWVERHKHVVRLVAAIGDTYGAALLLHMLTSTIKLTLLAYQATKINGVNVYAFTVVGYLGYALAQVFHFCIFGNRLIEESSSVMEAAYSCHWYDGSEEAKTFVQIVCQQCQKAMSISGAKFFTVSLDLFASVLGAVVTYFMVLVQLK
Experimental: as §1
Stable cell lines Or47a/Or83b and 5HT3 were generated from Flip-In T-Rex cells. Flip-In T-Rex-based cell lines were cultured in DMEM supplemented with these additional antibiotics: 6 μg/mL blasticidin and 100 μg/mL hygromycin.
Cells were trypsinized and split into 35 mm dishes 1 day before transfection. Confluent cells (60-70%) in 35 mm dishes were co-transfected with 1 μg of Or47a/Or83b plasmid in pcDNA5/FRT/TO/IRES plus the pOG44 plasmid or 1 μg of 5HT3 plasmid in pcDNA5/FRT/TO plus the pOG44 plasmid using lipofectamine 2000. Co-transfection of pOG44 and pcDNA5/FRT/TO/IRES or pcDNA5/FRT/TO allows expression of Flp recombinase and integration of the pcDNA5 plasmid into the genome via the FRT site. After one day of incubation, the transfected cells were transferred into 10 cm dishes with DMEM containing antibiotics: 20 μg/mL of hygromycin and 6 μg/mL of blasticidin. The concentration of Hygromycin was increased to 100 μg/mL when the population of cells became 30-40% confluent. The cells were cultured by changing medium every two days until cell clumps appeared. The clumps were picked and transferred into 96 well plates with DMEM containing 100 μg/mL of Hygromycin and 6 μg/mL of blasticidin. The cells were grown and transferred to 24 well plates, and ligand-evoked calcium increases were tested using the Hamamatsu FDSS6000 real time fluorescence plate reader.
as §2, §3

[3] = ligand menthol 300 μM, read-out: IC50 TRPM8
[4] = ligand pentyl acetate 30 μM, read-out: IC50 OR47a OR83b

Question: For `Cc1ccccc1C(=O)N[C@@H]1CCCCC1NC(=O)C1CCN(C(=O)c2cc(C(F)(F)F)cc(C(F)(F)F)c2)CC1` (stereo partly shown) [RU-0045778], which inhibition at 4 µM [1] is on record?
Answer: < 25%

Question: What about the inhibition at 4 µM [2] of the same compound?
Answer: 26 to 50%

Question: How did the inhibition at 4 µM [1] turn out when `CCNc1nc(NC(C)C)nc(N(C#N)Cc2ccccc2)n1` [RU-0015806] was run?
Answer: 26 to 50%

Question: And the IC50 ([2]; Table B, read-out: IC50 OR47a)?
Answer: < 0.1 µM

Question: And the inhibition at 4 µM [2]?
Answer: 51 to 74%

Question: Which results are given for `Cc1cc(C)c(Cn2ccnc2CN(C(=O)c2ccccc2F)C(C)C)c(C)c1` [RU-0048001]?
Answer: inhibition at 4 µM [1]: 26 to 50%; IC50 ([2]; Table B, read-out: IC50 OR47a): > 1 µM; inhibition at 4 µM [2]: 51 to 74%

Question: Which results are given for `COc1cccc(NC(=O)CCC2CCN(C(=O)CSc3ccccc3)CC2)c1` [RU-0032474]?
Answer: inhibition at 4 µM [1]: < 25%; IC50 ([2]; Table B, read-out: IC50 OR47a): > 1 µM; inhibition at 4 µM [2]: 51 to 74%

Question: How did the IC50 [1] turn out when `CC(C)Nc1nc(Cl)nc(N(C)C(C)C)n1` [RU-T7] was run?
Answer: > 20 µM

Question: What about the IC50 [2] of the same compound?
Answer: > 20 µM

Question: Which results are given for `O=C(C1CCCC1)N(Cc1nccn1CCc1c(F)cccc1Cl)C1CC1` [RU-I2]?
Answer: IC50 [1, 3]: > 20 µM; IC50 [2, 4]: < 2 µM

Question: `O=C(c1nccn1Cc1c(F)cccc1Cl)N(CC1CCCC1)C1CC1` [RU-I3] was tested. Which IC50 [1, 3] did it give?
Answer: > 20 µM

Question: What about the IC50 [2, 4] of the same compound?
Answer: < 2 µM

Question: With `CCCCCCCC(=O)N1CCCC(C(=O)NC2CCCC[C@H]2NC(=O)c2ccccc2C)C1` (stereo partly shown) [RU-0045756] as the compound, how does the inhibition at 4 µM [1] read?
Answer: < 25%

Question: What about the inhibition at 4 µM [2] of the same compound?
Answer: 26 to 50%

Question: Which inhibition at 4 µM [1] does the source give for `O=C(c1cccnc1Cl)N1CCOC(COCc2c(Cl)cccc2Cl)C1` (stereo not shown) [RU-0050372] here?
Answer: < 25%

Question: And the inhibition at 4 µM [2]?
Answer: 26 to 50%

Question: What does the source list for `O=C(c1cccc(F)c1)N(Cc1c(-c2ccccc2)noc1N1CCCC1)CC1CCCO1` (stereo not shown) [RU-0037434]?
Answer: inhibition at 4 µM [1]: < 25%; IC50 ([2]; Table B, read-out: IC50 OR47a): > 1 µM; inhibition at 4 µM [2]: 51 to 74%

Question: How did the inhibition at 4 µM [1] turn out when `CC(C)CN(Cc1nccn1Cc1c(F)cccc1Cl)C(=O)c1ccc(F)cc1` [RU-0048054] was run?
Answer: < 25%

Question: And the inhibition at 4 µM [2]?
Answer: 26 to 50%

Question: How did the inhibition at 4 µM [1] turn out when `CCN(CC)c1onc(-c2ccccc2)c1CN(CC1CCCO1)C(=O)c1ccco1` (stereo not shown) [RU-0036855] was run?
Answer: 26 to 50%

Question: What about the inhibition at 4 µM [2] of the same compound?
Answer: 26 to 50%

Question: With `N#Cc1ccccc1C(=O)N1CCOC(COCc2c(Cl)cccc2Cl)C1` (stereo not shown) [RU-0050405] as the compound, how does the inhibition at 4 µM [1] read?
Answer: < 25%

Question: And the IC50 ([2]; Table B, read-out: IC50 OR47a)?
Answer: > 1 µM

Question: And the inhibition at 4 µM [2]?
Answer: 51 to 74%

Question: For `O=C(c1ccco1)N(Cc1ccco1)Cc1nccn1Cc1ccccc1F` [RU-0047694], which inhibition at 4 µM [1] is on record?
Answer: < 25%

Question: And the inhibition at 4 µM [2]?
Answer: 26 to 50%

Question: Which results are given for `CCN(CC)c1onc(-c2ccccc2)c1CN(CC1CCCO1)C(=O)c1ccc2c(c1)OCO2` (stereo not shown) [RU-0036875]?
Answer: inhibition at 4 µM [1]: < 25%; IC50 ([2]; Table B, read-out: IC50 OR47a): > 1 µM; inhibition at 4 µM [2]: 51 to 74%

Question: Which results are given for `CC(C)Nc1nc(Cl)nc(NC(C)C)n1` [RU-T1]?
Answer: IC50 [1, 3]: > 20 µM; IC50 [2, 4]: > 20 µM

Question: `COCCN(Cc1nccn1Cc1c(F)cccc1Cl)C(=O)CCc1ccccc1` [RU-0058550] was tested. Which inhibition at 4 µM [1] did it give?
Answer: < 25%

Question: And the inhibition at 4 µM [2]?
Answer: 26 to 50%

Question: What does the source list for `Cc1cccc(NC(=O)CCC2CCN(C(=O)CCOc3ccccc3)CC2)c1` [RU-0030324]?
Answer: inhibition at 4 µM [1]: 26 to 50%; IC50 ([2]; Table B, read-out: IC50 OR47a): < 0.1 µM; inhibition at 4 µM [2]: 51 to 74%
